Measured values taken from US11161824B2, “Heterocyclic lipoxin analogs and uses thereof” (University College Dublin, National University of Ireland, …, priority 2016, dated 2021).
Like-named read-outs stand apart in the source and are kept apart here. Each block holds one molecule with its values, some of them ahead of it.

Experiments:
NFkB [1] = experiment: LPS-induced NFkB-driven luciferase activity in THP-1 LUCIA monocytes; assay type: cell-based; conditions: for effect on LPS-induced NFkB-driven luciferase activity (in words): doses 10^-12 M to 10^-6 M, 50 ng/ml LPS, 24 h; for reduction of LPS-induced NFkB luciferase activity: 30 min pre-treatment, then 24 h with 50 ng/ml LPS, relative to LPS; for concentration at which maximal inhibition of LPS-induced NFkB activity is reached: dose-response 10^-12 M to 10^-6 M; for potency in reducing LPS-induced NFkB activity, comparison in words: versus LXA4 or other analogues
Protocol: 1×10^5 THP-1 LUCIA monocytes were pre-treated for 30 min with native LXA4 1 (FIG. 1A), imidazole analogues 9 [(1R)-epimer (FIG. 1B) and (1S)-epimer (FIG. 1C)], vehicle or appropriate controls, at increasing doses ranging from 10^−12 M up to 10^−6 M. 10^8 HKLM was used as positive control for NFkB activation. After 24 h from stimulation with 50 ng/ml of LPS, supernatants were collected and NFkB-driven luciferase was measured. (d) Data are expressed as % Relative Luminescence Unit relative to LPS alone ±SEM (n=3), *=p<0.05, **=p<0.01, ***=p<0.001. Graphs display the statistical analysis of the tested compound vs LPS.
(§1) The experiments were based around a model which utilised 1×10^5/ml THP-1 monocytes stably expressing NFkB luciferase reporter gene (LUCIA).
(§2) Anti-inflammatory activity was assessed by testing 10 analogues (6 quinoxalines & 4 isoquinolines) in presence & absence of lipopolysaccharide (LPS). For each analogue, a dose-response from 10^−12 M up to 10^−6 M was performed. The vehicle control corresponded to 0.1% Ethanol. NFkB activator, Heat-Killed Listeria Monocytogenes (HKLM) (10^7 cells/ml), were used as positive control for luciferase induction. 10^−6 M Dexamethasone (Dex) was used as positive control for luciferase inhibition. […] Benzo-lipoxin A4 (BLX) was used as positive control for LXA4 analogues.
A 2-tailed, assuming unequal variance T-test analysis was performed on three independent experiments for each assay. P-values were considered significant when p<0.05. If p<0.05, then * or $; if p<0.01, then ** or $$ or ##; if p<0.001, then *** or $$$ or ###.
Cells were seeded in 96-well plates and pre-treated with increasing doses of LXA4, analogues or controls for 30 min, followed by 24 h of co-incubation with 50 ng/ml LPS. […] (*=statistical analysis vs LPS; $=statistical analysis vs LXA4)

NFkB [2] = experiment: NFkB-driven luciferase activity in resting conditions (absence of LPS) in THP-1 LUCIA monocytes; assay type: cell-based; conditions: 10^-12 M to 10^-6 M, 24 h
Protocol: 1×10^5 THP-1 LUCIA monocytes were treated for 30 min with native (a) LXA4 1, its stable imidazole-lipoxin analogues (1R)-9 and (1S)-9, vehicle or appropriate controls, at increasing doses ranging from 10^−12 M up to 10^−6 M. After 24 h, supernatants were collected and NFkB-driven luciferase was measured. Data are expressed as % Relative Luminescence Unit relative to LPS alone ±SEM (n=3).
as §1, §2

Th1 cytokine release = experiment: LPS-induced Th1 cytokine release from THP-1 LUCIA monocytes; assay type: cell-based; conditions: 10^-11, 10^-9 or 10^-7 M; 50 ng/ml LPS 24 h; IL1β, IL6, IL12p70, IFNγ, TNF-α as per figure
Protocol: FIG. 2A-2E are graphs showing imidazole-lipoxin analogues (1R)-9 and (1S)-9 reduce LPS-induced Th1 cytokine release. 1×10^5 THP-1 LUCIA monocytes were pre-treated for 30 min with […], 10^−9 M or 10^−7 M of LXA4 1 and imidazole-lipoxin analogues (1R)-9 and (1S)-9, vehicle or appropriate controls. After 24 h from stimulation with 50 ng/ml of LPS, supernatants were collected and […] (FIG. 2A), IL6 (FIG. 2B), IL12p70 (FIG. 2C), IFNγ (FIG. 2D), and TNF-α (FIG. 2E) levels were measured. Data are expressed as % cytokine secretion relative to LPS alone ±SEM (n=3), *=p<0.05, **=p<0.01, ***=p<0.001.
FIG. 6A-6C are graphs showing that quinoxaline-lipoxin analogue (1R)-CT-4-43 inhibits LPS-induced Th1 cytokine release. 1×10^5 THP-1 LUCIA monocytes were pre-treated for 30 min with […], 10^−9 M or 10^−7 M of LXA4 and quinoxaline-lipoxin analogue (1R)-CT-4-43, vehicle or appropriate controls. After 24 h from stimulation with 50 ng/ml of LPS, supernatants were collected and IL13 (FIG. 6A), IL6 (FIG. 6B), and IFNγ (FIG. 6C) levels were measured. Data are expressed as % cytokine secretion relative to LPS alone ±SEM (n=3), *=p<0.05, **=p<0.01, ***=p<0.001.
FIG. 9A-9C are graphs showing that the isoquinoline-lipoxin analogue RB3 inhibit LPS-induced Th1 cytokine release. 1×10^5 THP-1 LUCIA monocytes were pre-treated for 30 min with 10^−11 M, 10^−9 M or 10^−7 M of LXA4 and isoquinoline-lipoxin analogue (1R)-RB3, vehicle or appropriate controls. After 24 h from stimulation with 50 ng/ml of LPS, supernatants were collected and IL1β(FIG. 9A), IL6 (FIG. 9B), and IL12p70 (FIG. 9C) levels were measured. Data are expressed as % cytokine secretion relative to LPS alone ±SEM (n=3), *=p<0.05, **=p<0.01, ***=p<0.001.

[3] = system: zymosan-induced peritonitis; experiment: Murine zymosan-induced peritonitis; assay type: in vivo, C57BL6/J mice; conditions: lavage 24 h
Protocol: As shown in FIG. 17 zymosan [1 mg per mouse in 200 μl H2O] induced a massive influx of leukocytes detected in lavage 24 h post-zymosan. […] Mean of total cell numbers=4.27×10^6/ml [basal]; 5.9×107 [vehicle pretreatment and zymosan]; 2.18×107 [LXA4 pretreatment and zymosan]. Pretreament with (R) and (S) epimers of 9 also attenuated cell influx: 2.5×10^7/ml [pretreatment with (1R)-9 and zymosan; p=0.0368, relative to zymosan alone]; 1.16×107 (1S)-9 [p=0.0048 relative to zymosan alone]. Importantly, (1R)-9 and (1S)-9 were administered at doses of 1.7 ng/g using the same regimen as LXA4. As anticipated the leukocyte influx was predominantly neutrophil [PMN]. PMN numbers were reduced to 35, 44 and 20% maximum response by LXA4, (1R)-9 and (1S)-9 epimers respectively.
Effect of LXA4 1 and imidazole-lipoxin analogues (1R)-9 and (1S)-9 on murine zymosan-induced peritonitis. Peritonitis was induced in groups of 5 male C57BL6/J mice by injection of zymosan (Sigma) i.p. (1 mg per mouse in 200 μl H2O). Mice were treated with LXA4 1; (5 ng/g); (1R)-9 (1.7 ng/g) or (1S)-9 (1.7 ng/g) (200 μl i.p.) 30 minutes prior to zymosan injection and again, 1 hour after zymosan injection. Treatments with LXA4 1, (1R)-9 and (1S)-9 are designated A, B and C respectively. Peritoneal cells were collected by lavage 24 hours after injection of zymosan. Cells were incubated with LIVE/DEAD Fixable Aqua stain (Molecular probes, Invitrogen) to isolate dead cells. Data shown are total cell counts/ml. Surface marker expression on peritoneal cells was assessed by flow cytometry with data collection on a CyAn (Beckman Coulter). Data were analyzed using FlowJo software (Tree Star). Cells were stained with BD Biosciences mAbs; Siglec-F-PE (E50-2440), F4/80-FITC (BM8), eBiosciences mAb; CD11b-PerCP (M1/70) and BioLegend mAbs; CD206-PECy7 (C068C2) and Ly6G-APCCy7 (1A8). Using appropriate isotype-controls, quadrants were drawn and data plotted on logarithmic scale density- or dot-plots to investigate the relative % of PMN, eoisiophils, M1 and M2 macrophgaes. […]

THP-1 monocytes = system: THP-1 monocytes
Protocol: Cytotoxicity Prior to functional assay testing, all compounds were screened for any cytotoxic effect, in the presence & absence of LPS, measuring the level of lactate dehydrogenase (LDH) released at A490nm.
The cells were treated as described above and, after 24 h, supernatant was collected and LDH activity assayed.

[4] = 1.7 ng/g i.p. 30 min before and 1 h after zymosan

- effect on LPS-induced NFkB-driven luciferase activity (in words) (NFkB [1]): attenuating
- NFkB-driven luciferase activity in resting conditions (in words) (NFkB [2]): do not elicit
SMILES: CCCCC[C@@H](O)c1nc(-c2ccccc2)n(-c2ccccc2)c1/C=C/[C@@H](O)[C@@H](O)CCCC(=O)OC [(1R)-9, Methyl (5S,6R,E)-5,6-dihydroxy-8-(4-((R)-1-hydroxyhexyl)-1,2-diphenyl-1H-imidazol-5-yl)oct-7-enoate]
- effect on LPS-induced Th1 cytokine release (in words) (Th1 cytokine release): reduce
- PMN numbers [3, 4]: 44 % maximum response

- effect on LPS-induced NFkB-driven luciferase activity (in words) (NFkB [1]): attenuates
- potency in reducing LPS-induced NFkB activity, comparison in words (NFkB [1]): not significantly different from LXA4
SMILES: CCCCCCC[C@@H](O)c1nc2ccccc2nc1/C=C/[C@@H](O)[C@@H](O)CCCC(=O)OC [(1R)-CT4-63, Methyl (5S,6R,E)-5,6-dihydroxy-8-(3-((R)-1-hydroxyoctyl)quinoxalin-2-yl)oct-7-enoate]
- reduction of LPS-induced NFkB luciferase activity (NFkB [1]; 1 nM): 22.8±7.4%
- concentration at which maximal inhibition of LPS-induced NFkB activity is reached (NFkB [1]): 1 nM

- effect on LPS-induced NFkB-driven luciferase activity (in words) (NFkB [1]): attenuates
SMILES: CCC[C@@H](O)c1nc2ccccc2nc1/C=C/[C@@H](O)[C@@H](O)CCCC(=O)OC [(1R)-CT4-68, Methyl (5S,6R,E)-5,6-dihydroxy-8-(3-((R)-1-hydroxybutyl)quinoxalin-2-yl)oct-7-enoate]
- reduction of LPS-induced NFkB luciferase activity (NFkB [1]; 1 uM): 28.9±6.6%

- effect on LPS-induced NFkB-driven luciferase activity (in words) (NFkB [1]): attenuates
- potency in reducing LPS-induced NFkB activity, comparison in words (NFkB [1]): most potent
- NFkB-driven luciferase activity in resting conditions (in words) (NFkB [2]): did not elicit
SMILES: CCCCC[C@@H](O)c1nc(/C=C/[C@@H](O)[C@@H](O)CCCC(=O)OC)cc2ccccc12 [(1R)-DM-163-RB3]
- reduction of LPS-induced NFkB luciferase activity (NFkB [1]; 10 nM): 35.4±6.1%
- reduction of LPS-induced NFkB luciferase activity (NFkB [1]; 100 nM): 37.9±9.7%
- effect on LPS-induced Th1 cytokine release (in words) (Th1 cytokine release): inhibit

- effect on LPS-induced NFkB-driven luciferase activity (in words) (NFkB [1]): attenuating
- NFkB-driven luciferase activity in resting conditions (in words) (NFkB [2]): do not elicit
SMILES: CCCCC[C@H](O)c1nc(-c2ccccc2)n(-c2ccccc2)c1/C=C/[C@@H](O)[C@@H](O)CCCC(=O)OC [(1S)-9, Methyl (5S,6R,E)-5,6-dihydroxy-8-(4-((S)-1-hydroxyhexyl)-1,2-diphenyl-1H-imidazol-5-yl)oct-7-enoate]
- effect on LPS-induced Th1 cytokine release (in words) (Th1 cytokine release): reduce
- PMN numbers [3, 4]: 20 % maximum response

- effect on LPS-induced NFkB-driven luciferase activity (in words) (NFkB [1]): attenuates
SMILES: CCCCC[C@@H](O)c1ncc(/C=C/[C@@H](O)[C@@H]2CCCC(=O)O2)c2ccccc12 [(1S)-DM-178-SB4, (S)-6-((R,E)-1-Hydroxy-3-(1-((R)-1-hydroxyhexyl)isoquinolin-4-yl)allyl)tetrahydro-2H-pyran-2-one]
- reduction of LPS-induced NFkB luciferase activity (NFkB [1]; 1 uM): 26.8±8.7%

SMILES: CCCCC[C@@H](O)c1ccccc1/C=C/[C@@H](O)[C@@H](O)CCCC(=O)OC [Blx]
- effect on LPS-induced LDH activity (cytotoxicity, in words) (THP-1 monocytes): significantly (p<0.001) decreased

SMILES: C[C@@H]1C[C@H]2[C@@H]3CCC4=CC(=O)C=C[C@]4(C)[C@@]3(F)[C@@H](O)C[C@]2(C)[C@@]1(O)C(=O)CO [Dexamethasone]
- effect on LPS-induced LDH activity (cytotoxicity, in words) (THP-1 monocytes; human, 24 h): significantly (p<0.001) increased

- effect on LPS-induced NFkB-driven luciferase activity (in words) (NFkB [1]): attenuating
- NFkB-driven luciferase activity in resting conditions (in words) (NFkB [2]): did not induce
- NFkB-driven luciferase activity in resting conditions (in words) (NFkB [2]; listed as KG5-22): does not elicit
SMILES: CCCCC[C@@H](O)c1c(/C=C/[C@@H](O)[C@@H](O)CCCC(=O)OC)nc(C)n1C [KG-5-22, (5S,6R,E)-methyl 5,6-dihydroxy-8-(5-((R)-1-hydroxyhexyl)-1,2-dimethyl-1H-imidazol-4-yl)oct-7-enoate]
- reduction of LPS-induced NFkB luciferase activity (NFkB [1]; 1 pM): 43.7±8.9%
- reduction of LPS-induced NFkB luciferase activity (NFkB [1]; 10 pM): 41.3±9.0%

SMILES: CCCCC[C@H](O)/C=C/C=C\C=C\C=C\[C@@H](O)[C@@H](O)CCCC(=O)O [LXA4, Lipoxin A4, reference compound]
- reduction of LPS-induced NFkB luciferase activity (NFkB [1]; 100 nM): 24±1.1%
- concentration at which maximal inhibition of LPS-induced NFkB activity is reached (NFkB [1]): 100 nM
- PMN numbers ([3]; 5 ng/g i.p. 30 min before and 1 h after zymosan): 35 % maximum response
